Test results published in article PMC10824666 (Nature Cancer, 2023).
Like-named read-outs stand apart in the source and are kept apart here. Each block holds one molecule with its values, some of them ahead of it.

What was measured:
DAPK1 = DAPK1 (Homo sapiens, UniProt P53355); experiment: biochemical; parameters: Eurofins DiscoverX kinase panel, competitive binding assay at 1 uM, percent of DMSO control; details: competitive binding, percent of DMSO control
Outline: (§1)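 Competitive binding assay across a 96-kinase panel with KIF18A compounds at 1 µM; values given as percentage of control (POC), single experiment.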

DMPK = molecular target: T1, DMPK (Homo sapiens, UniProt Q09013); experiment: biochemical; parameters: Eurofins DiscoverX kinase panel, competitive binding assay at 1 uM, percent of DMSO control; details: competitive binding, percent of DMSO control
T1 sequence (Q09013 1-629): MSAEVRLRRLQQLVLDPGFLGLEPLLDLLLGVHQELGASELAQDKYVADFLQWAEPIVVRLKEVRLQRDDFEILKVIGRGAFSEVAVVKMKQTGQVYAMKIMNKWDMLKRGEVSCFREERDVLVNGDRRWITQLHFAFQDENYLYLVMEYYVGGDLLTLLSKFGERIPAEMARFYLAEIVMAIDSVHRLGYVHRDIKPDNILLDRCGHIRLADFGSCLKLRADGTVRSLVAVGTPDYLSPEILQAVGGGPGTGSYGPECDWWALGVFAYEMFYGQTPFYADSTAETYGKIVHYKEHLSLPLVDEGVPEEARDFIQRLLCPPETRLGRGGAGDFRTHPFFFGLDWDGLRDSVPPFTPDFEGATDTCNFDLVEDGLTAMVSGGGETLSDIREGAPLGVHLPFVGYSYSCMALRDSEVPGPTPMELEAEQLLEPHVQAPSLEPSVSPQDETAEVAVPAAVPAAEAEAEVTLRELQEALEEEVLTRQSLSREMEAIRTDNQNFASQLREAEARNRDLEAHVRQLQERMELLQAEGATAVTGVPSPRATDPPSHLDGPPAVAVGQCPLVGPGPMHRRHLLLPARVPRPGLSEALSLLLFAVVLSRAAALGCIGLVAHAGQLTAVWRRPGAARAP
Outline: as §1

[1] = read-out: Kinome Profiling performed by Eurofins DiscoverX / AM-0277, 1.0 µM / POC
[2] = read-out: Kinome Profiling performed by Eurofins DiscoverX / AM-1882, 1.0 µM / POC
[3] = read-out: Kinome Profiling performed by Eurofins DiscoverX / AM-5308, 1.0 µM / POC

Chain of DAPK1 (P53355 whole entry): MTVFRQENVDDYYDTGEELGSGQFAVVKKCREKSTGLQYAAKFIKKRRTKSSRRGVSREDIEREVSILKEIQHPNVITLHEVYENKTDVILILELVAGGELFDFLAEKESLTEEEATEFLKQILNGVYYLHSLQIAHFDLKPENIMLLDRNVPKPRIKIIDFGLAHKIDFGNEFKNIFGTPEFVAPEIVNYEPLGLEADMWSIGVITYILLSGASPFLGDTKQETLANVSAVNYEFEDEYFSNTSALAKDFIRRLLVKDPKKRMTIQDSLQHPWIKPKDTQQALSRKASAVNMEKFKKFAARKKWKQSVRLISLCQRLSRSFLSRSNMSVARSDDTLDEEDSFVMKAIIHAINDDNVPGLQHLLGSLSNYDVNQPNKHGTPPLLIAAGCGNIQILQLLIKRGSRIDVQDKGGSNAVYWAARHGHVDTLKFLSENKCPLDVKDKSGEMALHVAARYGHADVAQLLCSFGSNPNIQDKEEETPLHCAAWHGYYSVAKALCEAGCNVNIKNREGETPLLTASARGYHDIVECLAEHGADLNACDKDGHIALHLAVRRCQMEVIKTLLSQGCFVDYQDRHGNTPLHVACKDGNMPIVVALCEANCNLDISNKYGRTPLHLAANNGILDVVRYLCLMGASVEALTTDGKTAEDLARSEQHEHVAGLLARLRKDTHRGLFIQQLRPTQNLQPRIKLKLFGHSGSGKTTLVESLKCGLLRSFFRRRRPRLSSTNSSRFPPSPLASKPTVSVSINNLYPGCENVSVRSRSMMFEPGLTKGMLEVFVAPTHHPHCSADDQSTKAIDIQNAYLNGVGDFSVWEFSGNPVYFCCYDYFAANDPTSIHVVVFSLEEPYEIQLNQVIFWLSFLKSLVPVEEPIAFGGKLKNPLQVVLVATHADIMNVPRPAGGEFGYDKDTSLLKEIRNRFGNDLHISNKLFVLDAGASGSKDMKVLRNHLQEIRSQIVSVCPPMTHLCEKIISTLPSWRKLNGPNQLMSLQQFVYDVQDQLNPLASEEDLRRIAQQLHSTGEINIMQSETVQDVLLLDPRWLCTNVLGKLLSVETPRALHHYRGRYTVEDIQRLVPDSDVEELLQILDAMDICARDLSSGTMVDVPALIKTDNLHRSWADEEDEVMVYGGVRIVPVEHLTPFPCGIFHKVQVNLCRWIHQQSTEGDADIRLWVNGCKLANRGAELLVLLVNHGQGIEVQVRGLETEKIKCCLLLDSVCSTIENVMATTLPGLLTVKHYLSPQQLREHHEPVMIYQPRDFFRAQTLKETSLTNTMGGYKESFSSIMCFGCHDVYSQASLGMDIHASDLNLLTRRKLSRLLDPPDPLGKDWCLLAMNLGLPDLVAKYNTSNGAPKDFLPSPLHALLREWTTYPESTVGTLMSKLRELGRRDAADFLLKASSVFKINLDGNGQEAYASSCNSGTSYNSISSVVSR

remaining activity at 1 µM (DAPK1; [1]): 100%
remaining activity at 1 µM (DMPK; [1]): 100%
SMILES: CC(C)(CO)Nc1ccc(C(=O)Nc2cccc(S(=O)(=O)C3CCCC3)c2)c(N2CCC3(CC2)CC3)n1 [AM-0277]

remaining activity at 1 µM (DAPK1; [2]): 87%
remaining activity at 1 µM (DMPK; [2]): 99.5%
SMILES: CC(C)(C)NS(=O)(=O)c1cccc(NC(=O)c2ccc(S(=O)(=O)NC(C)(C)C)cc2N2CCC3(CC2)CC3)c1 [AM-1882]

remaining activity at 1 µM (DAPK1; [3]): 89.5%
remaining activity at 1 µM (DMPK; [3]): 92%
SMILES: C[C@@H]1CN(c2cccc(NC(=O)c3ccc(NS(=O)(=O)CCO)cc3N3CCC4(CC3)CC4)n2)CCO1 [AM-5308]
